These results are taken from patent US10414811B2, “Protease-resistant lipidated GLP-1 analogs” (MEDIMMUNE LIMITED, priority 2015, dated 2019).

Like-named read-outs stand apart in the source and are kept apart here. Numbered stars: 1 amine (or outer) side, 2 acyl side, 3 side chain; on linkers, the order of the positions; unused ones are H or OH. Square brackets hold non-standard residues; d marks the D form. Side chains are listed from the residue outwards. Peptide text beside a SMILES is read from it. * marks the point of attachment. γGlu = O=C(O)[C@H](CCC(=O)[*:2])N[*:1]; Palmitoyl = CCCCCCCCCCCCCCCC(=O)*; αMeF = C[C@](N)(Cc1ccccc1)C(=O)O; αMeK = C[C@](N)(CCCCN)C(=O)O; αMeS = C[C@](N)(CO)C(=O)O; Aib = CC(C)(N)C(=O)O

Format in all cases: cell-based
Experiment [1] has as its target T1, human glucagon receptor (GCGR) (Homo sapiens, UniProt P47871).
T1 construct: expressed in transfected cells
The experiment in a line: cAMP assay, human GCGR cells. Conditions: cAMP assay. An outline of the steps: (§1)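 Peptide-stimulated cAMP measured by two-step HTRF after a 30 min room-temperature incubation with receptor-expressing cells (hGLP-1R, hGIPR at 1×10^5 cells/ml; hGCGR at 2×10^5 cells/ml). Duplicate dilutions; EC50 from 4-parameter logistic fit of % Delta F.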
For orientation: cAMP levels reflect the balance of adenylyl cyclase and phosphodiesterase activity.

Experiment [2] addresses T2, human GLP-1 receptor (GLP-1R) (Homo sapiens, UniProt P43220).
T2 construct: expressed in transfected cells
The experiment can be described thus: cAMP assay, human GLP-1R cells. In short, it runs like this: as §1

In experiment [3] the target is T3, human glucose-dependent insulinotropic peptide receptor (GIPR) (Homo sapiens, UniProt P48546).
T3 construct: expressed in transfected cells
T3 sequence (P48546 22-466): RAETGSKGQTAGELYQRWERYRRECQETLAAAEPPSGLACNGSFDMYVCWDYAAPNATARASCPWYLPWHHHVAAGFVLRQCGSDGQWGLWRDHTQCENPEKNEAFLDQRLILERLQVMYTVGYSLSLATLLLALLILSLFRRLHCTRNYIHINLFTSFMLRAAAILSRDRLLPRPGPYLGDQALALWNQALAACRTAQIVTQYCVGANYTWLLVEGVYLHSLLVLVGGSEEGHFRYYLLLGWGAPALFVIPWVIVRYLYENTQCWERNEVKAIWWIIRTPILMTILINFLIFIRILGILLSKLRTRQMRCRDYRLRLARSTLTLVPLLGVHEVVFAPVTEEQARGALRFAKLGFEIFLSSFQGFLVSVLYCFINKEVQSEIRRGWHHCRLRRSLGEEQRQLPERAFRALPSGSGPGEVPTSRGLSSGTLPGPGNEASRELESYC
The experiment in a line: cAMP assay, human GIPR cells. As to conditions: cAMP assay. In short, it runs like this: as §1

[4] abbreviates: first determination (n1), read-out: Primary assay EC50 Gluc-R (n1).
The mark [5] stands for this setting: second determination (n2), read-out: Primary assay EC50 Gluc-R (n2).
Setting [6] is: cAMP assay, first determination (n1), read-out: Primary assay EC50 GLP-1R n1.
The mark [7] stands for this setting: cAMP assay, second determination (n2), read-out: Primary assay EC50 GLP-1R n2.
The mark [8] stands for this setting: mean of n1 and n2, read-out: Mean pM GLP-1R.
Where [9] appears, read: first determination (n1), read-out: Primary assay EC50 GIP-R (n1).
Setting [10] is: second determination (n2), read-out: Primary assay EC50 GIP-R (n2).

T2 sequence (P43220 24-463): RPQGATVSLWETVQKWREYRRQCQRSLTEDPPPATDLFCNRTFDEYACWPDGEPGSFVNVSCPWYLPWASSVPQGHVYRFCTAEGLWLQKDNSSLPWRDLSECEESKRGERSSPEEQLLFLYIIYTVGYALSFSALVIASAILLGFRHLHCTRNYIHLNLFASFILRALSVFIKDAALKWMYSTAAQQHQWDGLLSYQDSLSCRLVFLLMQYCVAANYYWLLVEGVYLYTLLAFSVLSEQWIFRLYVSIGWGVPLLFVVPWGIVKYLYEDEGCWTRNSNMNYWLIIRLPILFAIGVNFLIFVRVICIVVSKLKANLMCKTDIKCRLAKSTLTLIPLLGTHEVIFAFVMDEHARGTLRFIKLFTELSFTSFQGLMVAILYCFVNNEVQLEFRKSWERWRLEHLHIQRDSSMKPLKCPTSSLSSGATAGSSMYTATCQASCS
T1 sequence (P47871 26-477): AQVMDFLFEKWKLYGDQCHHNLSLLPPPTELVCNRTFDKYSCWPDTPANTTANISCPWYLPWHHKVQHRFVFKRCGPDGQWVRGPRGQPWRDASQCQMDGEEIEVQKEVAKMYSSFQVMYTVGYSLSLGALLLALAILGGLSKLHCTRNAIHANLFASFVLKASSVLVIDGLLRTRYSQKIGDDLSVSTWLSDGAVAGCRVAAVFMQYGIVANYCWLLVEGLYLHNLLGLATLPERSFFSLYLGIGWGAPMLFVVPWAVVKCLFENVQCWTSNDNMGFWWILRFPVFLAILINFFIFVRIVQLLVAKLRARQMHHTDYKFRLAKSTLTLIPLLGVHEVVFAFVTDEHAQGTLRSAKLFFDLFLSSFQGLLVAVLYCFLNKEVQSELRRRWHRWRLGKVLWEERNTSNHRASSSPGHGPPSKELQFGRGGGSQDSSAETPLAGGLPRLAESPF

As to `CCCCCCCCCCCCCCCC(=O)N[C@@H](CCC(=O)NCCCC[C@H](NC(=O)[C@H](C)NC(=O)[C@H](CCC(=O)O)NC(=O)CNC(=O)[C@H](CCC(=O)O)NC(=O)[C@H](CC(C)C)NC(=O)[C@](C)(Cc1ccccc1)NC(=O)[C@H](CO)NC(=O)[C@](C)(CO)NC(=O)[C@@H](NC(=O)[C@H](CC(=O)O)NC(=O)[C@H](CO)NC(=O)[C@@H](NC(=O)[C@](C)(Cc1ccccc1)NC(=O)[C@H](CO)NC(=O)CNC(=O)[C@H](CCC(=O)O)NC(=O)C(C)(C)NC(=O)[C@@H](N)Cc1c[nH]cn1)[C@@H](C)O)C(C)C)C(=O)N[C@@](C)(CCCCN)C(=O)N[C@@H](CCC(=O)O)C(=O)N[C@@](C)(Cc1ccccc1)C(=O)N[C@H](C(=O)N[C@@H](C)C(=O)N[C@@](C)(Cc1ccccc1)C(=O)N[C@H](C(=O)N[C@H](C(=O)N[C@@](C)(CCCCN)C(=O)NCC(=O)NCC(N)=O)C(C)C)C(C)C)[C@@H](C)CC)C(=O)O` [compound 81] (H-H[Aib]EGS[αMeF]TSDV[αMeS]S[αMeF]LEGEAK([γGlu-Palmitoyl])[αMeK]E[αMeF]IA[αMeF]VV[αMeK]GG-NH2; N-terminus assumed), the EC50 in experiment [1] (setting [4]) was no less than 27 nM; in experiment [1] (setting [5]), no less than 27 nM; in experiment [2] (setting [6]), 370 pM; in experiment [2] (setting [7]) it was 200 pM; in experiment [2] (setting [8]) it was 283 pM; in experiment [3] (setting [9]), no less than 27 nM. For the same compound, the EC50 in experiment [3] (setting [10]) was no less than 27 nM.
Take `CC[C@H](C)[C@H](NC(=O)[C@](C)(Cc1ccccc1)NC(=O)[C@H](CCC(=O)O)NC(=O)[C@](C)(CCCCN)NC(=O)[C@H](C)NC(=O)[C@H](C)NC(=O)[C@H](CCC(=O)O)NC(=O)CNC(=O)[C@H](CCC(=O)O)NC(=O)[C@H](CC(C)C)NC(=O)[C@](C)(Cc1ccccc1)NC(=O)[C@H](CO)NC(=O)[C@](C)(CO)NC(=O)[C@@H](NC(=O)[C@H](CC(=O)O)NC(=O)[C@@H](NC(=O)[C@@H](NC(=O)[C@](C)(Cc1ccccc1)NC(=O)[C@H](CO)NC(=O)CNC(=O)[C@H](CCC(=O)O)NC(=O)C(C)(C)NC(=O)[C@@H](N)Cc1c[nH]cn1)[C@@H](C)O)C(C)C)C(C)C)C(=O)N[C@@H](C)C(=O)N[C@@](C)(Cc1ccccc1)C(=O)N[C@H](C(=O)N[C@H](C(=O)N[C@@](C)(CCCCN)C(=O)NCC(=O)NCC(N)=O)C(C)C)C(C)C` [compound 30] (H-H[Aib]EGS[αMeF]TVDV[αMeS]S[αMeF]LEGEAA[αMeK]E[αMeF]IA[αMeF]VV[αMeK]GG-NH2; N-terminus assumed): the EC50 is no less than 100 nM in experiment [1] (setting [4]); no less than 100 nM in experiment [1] (setting [5]); 80000 pM in experiment [2] (setting [6]); 97000 pM in experiment [2] (setting [7]); 88600 pM in experiment [2] (setting [8]); no less than 100 nM in experiment [3] (setting [9]). Moreover, in experiment [3] (setting [10]), the EC50 is no less than 100 nM.
